Experimental data taken from patent US20230414602A1, “PHARMACEUTICAL COMPOSITION COMPRISING INSOLUBLE CAMPTOTHECIN COMPOUND-CONTAINING NANOPARTICLE FOR TREATMENT OF CANCER AND COMBINATION THERAPY THEREOF” (SNBioScience Inc., priority 2020, published 2023).
Counter-ions that a name gives are not always drawn.

Columns and labels:
MDA-MB-231 = assay: Breast cancer MDA-MB-231 xenograft, tumor volume and TGI (Example 4); type: in vivo, BALB/c nu/nu male mice; conditions: docetaxel 5->15 mg/kg, SNB-101 20 mg/kg (as SN-38), i.v. Q1W x 6
Description: (§1) The thawed cells were cultured for one week or longer, with passages every two or three days. The cells were assayed for viability (trypan blue) and infection with bacteria and yeasts (cell images) and mycoplasma (MycoAlert Mycoplasma detection kit).
(§2) Tumor volume and body weight were measured twice a week (intervals of 3 or 4 days) from the time of grouping to the end of the test, and a tumor growth curve was constructed from the start of drug administration to the end of the test.
(§3) As of the end of the experiment, relative tumor growth inhibition (TGI) to the vehicle was calculated using the following equation.
Tumor growth inhibition (TGI) (%)={1−(ΔT/ΔC)}×100 Equation 2

[1] = Body weight of MDA-MB-231 xenograft mice (Example 4); type: in vivo, BALB/c nu/nu male mice
Description: as §2

[2] = Body weight of A549 xenograft mice (Example 4); type: in vivo, BALB/c nu/nu male mice
Description: as §2

A549 = assay: Lung cancer A549 xenograft, tumor volume and TGI (Example 4); type: in vivo, BALB/c nu/nu male mice; conditions: docetaxel 5->10 mg/kg, SNB-101 20 mg/kg (as SN-38), i.v. Q1W x 5
Description: as §1, §2, §3
Tumor growth inhibition (TGI)(%)={1−(ΔT/ΔC)}×100 Equation 2

AsPC-1 cells = assay: AsPC-1 pancreatic cancer xenograft, tumor volume and tumor weight (Example 2); conditions: excised day 22; nab-paclitaxel 5, irinotecan HCl 50, SNB-101 low dose 10/15.9 mg/kg/day
Source text: As a pancreatic cancer cell line for a pancreatic cancer xenograft model, AsPC-1 was used. AsPC-1 cells are aggressive cells and are known to have resistance to gemcitabine.

[3] = Body weight of AsPC-1 xenograft mice (Example 2); type: in vivo, BALB/c nu/nu male mice
[4] = tested on: HT-29 colorectal cancer cells; assay: HT-29 colorectal cancer xenograft, tumor volume (Example 5); type: in vivo, BALB/c nude mice
Source text: A total of 150 BALB/c nude mice (5-week-old males) were obtained and acclimatized for about one week before transplantation of HT-29 colorectal cancer cells into the subcutaneous area of the right hip. […] after transplantation, 50 mice were selected on the basis of the tumor volume and classified into five groups of 10.
[…] after transplantation of the HT-29 colorectal cancer cells, mice were selected based on the tumor volume and randomly divided into 5 groups (10 mice/group). The drug administration group was set as in Table 13, below.
An autopsy was performed on day 28. A 5% dextrose solution used as a vehicle for the control was equally administered at a dose of 10 mL/kg.
Test results are expressed as mean±S.D. in Table 14, below.

Compound: CC(=O)O[C@@]12CO[C@@H]1C[C@H](O)[C@@]1(C)C(=O)[C@H](O)C3=C(C)[C@@H](OC(=O)[C@H](O)[C@@H](NC(=O)OC(C)(C)C)c4ccccc4)C[C@@](O)([C@@H](OC(=O)c4ccccc4)[C@H]21)C3(C)C [Docetaxel, docetaxel]
- average tumor volume (MDA-MB-231; end of experiment (35 days after drug administration)): 1,228.93 mm3
- TGI (%) (MDA-MB-231; relative to vehicle, end of experiment (day 35)): 27.6%
- Body weight at the start of drug administration (day 0) ([1]; day 0, MDA-MB-231 xenograft mice): 19.63 g
- Body weight at the end of the test (day 35) ([1]; day 35, docetaxel 5->15 mg/kg, SNB-101 20 mg/kg (as SN-38), i.v. Q1W x 6): 20.25 g
- Body weight at the start of drug administration (day 0) [2]: 17.93 g
- average tumor volume (A549; end of experiment (37 days after drug administration)): 402.70 mm3
- TGI (%) (A549; relative to vehicle, end of experiment (day 37)): 50.0%

Compound: CCc1c2c(nc3ccc(OC(=O)N4CCC(N5CCCCC5)CC4)cc13)-c1cc3c(c(=O)n1C2)COC(=O)[C@]3(O)CC [Irinotecan HCl, irinotecan hydrochloride]
- Tumor weight (AsPC-1 cells): 0.489 ± 0.101 g
- Body weight, Day 0 ([3]; Day 0, i.v., nab-paclitaxel 5, irinotecan HCl 50, SNB-101 low dose 10/15.9 mg/kg/day (SN-38/irinotecan HCl)): 21.3 ± 0.9 g
- Body weight, Day 3 ([3]; Day 3, i.v., nab-paclitaxel 5, irinotecan HCl 50, SNB-101 low dose 10/15.9 mg/kg/day): 22.1 ± 1.1 g
- Body weight, Day 7 ([3]; Day 7, i.v., nab-paclitaxel 5, irinotecan HCl 50, SNB-101 low dose 10/15.9 mg/kg/day): 22.8 ± 1.1 g
- Body weight, Day 11 ([3]; Day 11, i.v., nab-paclitaxel 5, irinotecan HCl 50, SNB-101 low dose 10/15.9 mg/kg/day): 22.9 ± 1.2 g
- Body weight, Day 14 ([3]; Day 14, i.v., nab-paclitaxel 5, irinotecan HCl 50, SNB-101 low dose 10/15.9 mg/kg/day): 23.4 ± 1.2 g
- Body weight, Day 17 ([3]; Day 17, i.v., nab-paclitaxel 5, irinotecan HCl 50, SNB-101 low dose 10/15.9 mg/kg/day): 22.9 ± 1.2 g
- Body weight, Day 21 ([3]; Day 21, i.v., nab-paclitaxel 5, irinotecan HCl 50, SNB-101 low dose 10/15.9 mg/kg/day): 22.6 ± 1.2 g
- Body weight, Day 22 ([3]; Day 22 (autopsy), i.v., nab-paclitaxel 5, irinotecan HCl 50, SNB-101 low dose 10/15.9 mg/kg/day): 21.7 ± 1.3 g
- weight loss rate compared to G1 (vehicle group) ([3]; day 22, nab-paclitaxel 5, irinotecan HCl 50, SNB-101 low dose 10/15.9 mg/kg/day): 10.0%

Compound: Bevacizumab: monoclonal antibody and target anticancer drug (trade name Avastin)
- Tumor volume (mm^3) Test start A (day 1) ([4]; day 1, SNB-101 20/31.8 mg/kg venous, bevacizumab 5 mg/kg peritoneal, irinotecan 50 mg/kg venous, days 1, 4, 7): 96.67 ± 14.79 mm^3
- Tumor volume (mm^3) Test end B (day 28) ([4]; day 28, SNB-101 20/31.8 mg/kg venous, bevacizumab 5 mg/kg peritoneal, irinotecan 50 mg/kg venous, days 1, 4, 7): 709.38 ± 266.87 mm^3
- Tumor Volume Change (mm^3) [B − A] ([4]; day 28 minus day 1, SNB-101 20/31.8, bevacizumab 5, irinotecan 50 mg/kg): 612.71 ± 259.64 mm^3
